Results taken from article PMC9728188, “Cloning and Functional Characterization of Putative Escherichia coli ABC Multidrug Efflux Transporter YddA” (Journal of Microbiology and Biotechnology, 2020).

Assays:
Format in all cases: cell-based
[1] = molecular target: T1, YddA (Escherichia coli, UniProt P31826); assay: fluorescence efflux and accumulation assays in whole cells, yddA knockout vs parent strains; also inhibits norfloxacin efflux
[2] = molecular target: T1, YddA; assay: fluorescence efflux and accumulation assays in whole cells, yddA knockout vs parent strains
[3] = molecular target: T1, YddA; assay: inhibition of norfloxacin efflux in whole cells (fluorescence)
From the text: inhibition of norfloxacin efflux in whole cells (fluorescence) on YddA | Efflux of norfloxacin by YddA transporter was inhibited by reserpine

T1 sequence (P31826 whole entry): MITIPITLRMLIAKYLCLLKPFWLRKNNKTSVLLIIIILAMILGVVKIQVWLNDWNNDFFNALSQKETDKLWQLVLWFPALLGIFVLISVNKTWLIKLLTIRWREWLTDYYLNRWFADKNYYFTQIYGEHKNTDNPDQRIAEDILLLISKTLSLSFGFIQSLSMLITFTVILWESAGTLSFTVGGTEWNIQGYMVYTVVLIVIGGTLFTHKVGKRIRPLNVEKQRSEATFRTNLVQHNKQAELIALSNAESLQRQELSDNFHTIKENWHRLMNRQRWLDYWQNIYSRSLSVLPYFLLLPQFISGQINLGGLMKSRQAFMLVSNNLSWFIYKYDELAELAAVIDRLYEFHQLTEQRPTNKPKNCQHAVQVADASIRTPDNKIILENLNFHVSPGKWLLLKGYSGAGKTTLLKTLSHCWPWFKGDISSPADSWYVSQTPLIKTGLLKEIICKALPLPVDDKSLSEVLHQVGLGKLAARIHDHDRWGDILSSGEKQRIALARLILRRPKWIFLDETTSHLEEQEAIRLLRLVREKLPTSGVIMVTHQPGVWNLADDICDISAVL

CC[n+]1c(-c2ccccc2)c2cc(N)ccc2c2ccc(N)cc21 [EB, ethidium bromide]
fluorescence efflux and accumulation assays in whole cells, yddA knockout vs par [1]: indicating that yddA knockout reduced EB efflux, which increased the accumulation of EB in cells

CCn1cc(C(=O)O)c(=O)c2cc(F)c(N3CCNCC3)cc21 [norfloxacin]
fluorescence efflux and accumulation assays in whole cells, yddA knockout vs par [2]: The results showed that knockout of yddA led to less norfloxacin efflux out of cells.

COC(=O)[C@H]1[C@H]2C[C@@H]3c4[nH]c5cc(OC)ccc5c4CCN3C[C@H]2C[C@@H](OC(=O)c2cc(OC)c(OC)c(OC)c2)[C@@H]1OC [reserpine]
IC50 [3]: 120 µM
